The results in this text go back to patent US12133900B2, “Synthesis and composition of amino acid linking groups conjugated to compounds used for the targeted imaging of tumors” (Purdue Research Foundation, priority 2013, dated 2024).

The test system of data set [1] is FR-positive IGROV orthotopic ovary tumor. Description: Imaging and biodistribution, IGROV ovarian orthotopic model. It is filed as in vivo, mice. The note with it: 2 nmol, 2 h. The procedure:
Ovarian cancer was developed through surgical implantation of ovarian cancer cell lines near the ovarian bursa of the mouse. Seven-week-old female athymic nude mice were given 1-5% isoflurane for anesthesia and subcutaneous injection of 5 mg/kg meloxicam preoperatively for analgesia. The mice were placed dorsal side up and washed above the right ovary (just lateral to the epaxial muscles and ˜1.15 cm caudal to the rib cage) with a chlorhexidine scrub to ensure a sterile area for incision. After an insertion was made using scalpel through the skin, the peritoneal lining was lifted to make a small incision using a scissor and widened using a forceps. The ovarian fat pad was carefully lifted out and placed on a wetted gauze pad adjacent to the incision. Ovarian cancer cells (50,000 cells in 5 μL) were injected between the bursa and the ovary using a 30 gage needle. After placing the ovarian fat pad back into the body cavity, the body wall was closed using 3-0 or 4-0 vicryl and the skin was closed using staples.
(§1) Following whole body imaging, animals were dissected and selected tissues (heart, lung, liver, spleen, kidneys, stomach, small intestine, large intestine, muscle, skin, and tumor) were analyzed for fluorescence activity using IVIS imager using same settings as in whole body imaging.

For data set [2], the system named is folate receptor negative A549 tumor xenografts. Description: Whole body imaging and biodistribution, folate receptor-negative A549 tumor xenografts. It is filed as in vivo, mice. The note with it: for specificity for folate receptor (conclusion): FR-negative A549 xenografts. The procedure:
Seven-week-old female nu/nu mice were inoculated subcutaneously with A549 cells (1.0×10^6/mouse in RPM11640 medium) on the shoulder. Growth of the tumors was measured in perpendicular directions every 2 days using a caliper (body weights were monitored on the same schedule), and the volumes of the tumors were calculated as 0.5×L×W^2 (L=longest axis and W=axis perpendicular to L in millimeters). Once tumors reached between 400 and 500 mm3 in volume, animals (6 mice/group) were intravenously injected with 10 nmol of OTL-0038 in phosphate buffered saline (100 μL). After 2.5 h, animals were sacrificed by CO2 asphyxiation. Whole body imaging (intact tumor) experiments were then performed using a Caliper IVIS Lumina II Imaging Station with Living Image 4.0 software (PerkinElmer Inc, MA). Settings for imaging:—lamp level: medium; excitation: 745 nm; emission: ICG (indocyanine green); epi illumination; binning: 4 (M), FOV=12.5; f-stop=2; acquisition time=1 s.
Following whole body imaging, animals were dissected and selected tissues (heart, lung, liver, spleen, kidneys, stomach, small intestine, large intestine, muscle, skin, tumor) were analyzed for fluorescence activity using IVIS imager as before. Settings for imaging:—lamp level: medium; excitation: 745 nm; emission: ICG; epi illumination; binning: 4 (M), FOV=12.5; f-stop=2; acquisition time=1 s.
(§2) Seven-week-old female nu/nu mice were inoculated subcutaneously with KB (1.0×10^6/mouse in RPM11640 medium), IGROV (5.0×10^6/mouse in 50% high concentrated matrigel+RPM11640 medium), SKOV3 (5.0×10^6/mouse in RPM11640 medium), OVCAR3 (5.0×10^6/mouse in RPM11640 medium), MDA-MB231 (1.0×10^6/mouse in RPM11640 medium), M109 (1.0×10^6/mouse in RPM11640 medium) or A549 cells (2.0×10^6/mouse in RPM11640 medium) on the shoulder. Growth of the tumors was measured in perpendicular directions every 2 days using a caliper (body weights were monitored on the same schedule), and the volumes of the tumors were calculated as 0.5×L×W^2 (L=longest axis and W=axis perpendicular to L in millimeters). Once tumors reached approximately 300-400 mm3 in volume, animals (3-5 mice/group) were intravenously injected with the compound of interest in PBS (for dose escalation in KB tumor model: 0.3-90 nmol, for time dependent in KB tumor model: 2 or 10 nmol, and for general whole body imaging and biodistribution for all tumor models: 2 nmol, in 100 μL in PBS per mouse). For whole body imaging and biodistribution studies, animals were euthanized 2 hours after administration of the compound of interest by CO2 asphyxiation. For time dependent studies, animals were imaged under anesthesia using isoflurane. Whole body imaging (intact tumor) experiments was then performed using a Caliper IVIS Lumina II Imaging Station with Living Image 4.0 software (PerkinElmer Inc, MA).
as §1

Data set [3] is described as follows: Toxicity in healthy nude mice. It is filed as in vivo. The procedure: Seven-week-old healthy female nude mice (5 mice/group) were administered with 1 μmol of freshly prepared OTL-0038 or OTL-0039 dissolved in 100 μL of phosphate buffered saline via tail vein injection on day zero. Body weights and clinical observations were monitored prior to dosing and daily thereafter from day zero to 7. Any animals with a body weight loss of 20% or more over two consecutive days would be euthanized, but this was not necessary. The animals were euthanized by CO2 asphyxiation on day 7 and selected tissues (brain, heart, lung, liver, spleen, kidney, stomach, small intestine, large intestine, muscle, skin) were collected into vials containing 4% formalin. Formalin fixed tissues were sectioned into 10 μm thick sections and mounted onto Superfrost Plus™ slides (Fisher Scientific, Pittsburgh Pa.). After staining the slides with H&E, immunohistochemistry (IHC) analysis of the tissues was conducted to determine to the toxicity of OTL-0038 and OTL-0039.

Data set [4] deals with FR-positive SKOV3 tumor xenografts. Description: Imaging and biodistribution, SKOV3 ovarian xenograft. It counts as in vivo, mice. The note with it: 2 nmol, 2 h. The procedure: as §2, §1
Data set [5] deals with breast cancer cells metastasized to lung. Description: Imaging, MDA-MB 231 metastatic model. It counts as in vivo, mice. To be noted: 2 nmol, 2 h. The procedure:
One million (1×106) of either L1210A or MDA-MB231 cancer cells per mouse (cancer cells/mouse) were administered via tail vein injection into the mice. Tumor growth was monitored every other day using a Caliper IVIS Lumina II Imaging Station with Living Image 4.0 software (PerkinElmer Inc.).

Regarding `CC1(C)C(/C=C/C2=C(Oc3ccc(C[C@H](NC(=O)c4ccc(NCc5cnc6nc(N)[nH]c(=O)c6n5)cc4)C(=O)[O-])cc3)C(=C/C=C3\N(CCCCS(=O)(=O)[O-])c4ccc(S(=O)(=O)[O-])cc4C3(C)C)/CCC2)=[N+](CCCCS(=O)(=O)[O-])c2ccc(S(=O)(=O)[O-])cc21.[H+].[H+].[H+].[H+]` [OTL-0038, Pte-Tyr-S0456], in data set [1], the “accumulation (tissue biodistribution)” value was “accumulated mainly in the FR-positive IGROV orthotopic ovary tumor” and the tumor-to-normal tissue ratios entry is on record as “excellent tumor-to-normal tissue ratios”. For the same molecule, in data set [2] (2 nmol i.v., 2 h), the tissue biodistribution result was “no fluorescence was observed in FR-negative tumors” and the “whole body imaging: accumulation” value is given as “did not accumulated in the FR-negative tumors”. Besides, the “whole body imaging: accumulation” value in data set [2] (10 nmol i.v., 2.5 h) is “did not accumulated in the folate receptor negative tumors”. In data set [2], the “specificity for folate receptor (conclusion)” value was “highly specific for folate receptor”. Besides, the “specificity for folate receptor (conclusion)” value in data set [2] (listed as OTL38) was “highly specific for FR”. For the same molecule, the “toxicity (conclusion)” value in data set [3] (1 μmol (1000× clinical dose)) is listed as “not toxic to animals”. The “skin colour immediately after the injection” value in data set [3] (1 μmol tail vein) is reported as “became green”. Further, in data set [3] (1 μmol tail vein, day 0 to 7), the activity and behaviour result is given as “behaved normally throughout the study”; the “body weights over the course of the study” value was “remained stable”. For the same molecule, the “lesions in tissues (IHC data)” value in data set [3] (1 μmol tail vein, day 7) is “no lesions identified in any tissues”. In data set [4], the ex-vivo tissue biodistribution result is “highest fluorescence intensities were observed in FR-positive tumors and kidneys”; the tumor-to-normal tissue ratios result is reported as “excellent tumor-to-normal tissue ratios”; the “whole body imaging: accumulation” value was “accumulated mainly in the FR-positive SKOV3 tumor xenografts”. Also, the accumulation entry in data set [5] is reported as “mainly accumulated in the breast cancer cells metastasized to lung”.
